In patent US7220777B2, “Lactam derivatives as antagonists for human 11cby receptors” (SmithKline Beecham P.L.C., priority 2001, dated 2007):
Where no end group is shown, it is not given here.

What was measured:
[1] = target: T1, 353 form of the 11CBy receptor (Homo sapiens, UniProt Q99705); test: Radioligand ([125I]-MCH) competitive binding on membranes from HEK293 cells stably expressing 11CBy receptors; details: [125I]-MCH 0.22 nM, 45 min 37° C., pH7.4, pKi calculated from IC50
T1 construct: expressed in transfected cells; well washed membranes
T1 sequence (Q99705 whole entry): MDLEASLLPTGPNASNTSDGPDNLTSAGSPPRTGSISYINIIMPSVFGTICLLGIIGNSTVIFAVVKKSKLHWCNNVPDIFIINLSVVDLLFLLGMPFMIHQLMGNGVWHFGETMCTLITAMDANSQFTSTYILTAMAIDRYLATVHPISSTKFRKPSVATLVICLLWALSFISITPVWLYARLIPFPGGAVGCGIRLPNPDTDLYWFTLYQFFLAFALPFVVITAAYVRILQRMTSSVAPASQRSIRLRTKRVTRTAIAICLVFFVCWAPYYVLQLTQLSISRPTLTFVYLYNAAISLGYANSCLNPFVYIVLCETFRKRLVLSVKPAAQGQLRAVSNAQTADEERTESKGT
Description: Membranes ([…] protein) were incubated with [^125I]-Melanin Concentrating Hormone (0.22 nM) (obtained from NEN) in the presence and absence of competing test compounds for 45 min at 37° C. in a buffer (pH7.4), containing 50 mM Tris and 0.2% BSA. Non-specific binding was defined using […] Melanin Concentrating Hormone (obtained from Bachem). The test compounds were added at concentrations between […] and 10 pM in 10 concentration steps. Following incubation, the reaction was stopped by filtration through GF/B filters and washed with 4×1 ml of ice-cold 50 mM Tris buffer. Microscint 20 (Packard) was added to the filters and the radioactivity measured using a Packard TopCount. Bound cpm in the presence of test compound was expressed as a fraction of the bound cpm in the absence of test compound and plotted against the concentration of compound. From this an IC50 was determined from which the pKi was calculated.

[2] = test system: conscious CD rats; test: Effects of 11CBy antagonists on plasma glucagon and blood glucose levels (rat glucagon secretion model); format: in vivo
Description: Study of Effects of 11CBy Antagonists on Plasma Glucagon and Blood Glucose Levels

[3] = Example A4 15 mg/kg + MCH group, 5 min
[4] = Example A4 15 mg/kg + MCH group, 15 min
[5] = Example A4 15 mg/kg + MCH group, time 0

Work on `COc1cc(-n2nnc3cc(-c4ccccc4)ccc3c2=O)ccc1OCCN1CCCC1` [Example C5, 3-[3-Methoxy-4-(2-pyrrolidin-1-yl-ethoxy)-phenyl]-7-phenyl-3H-benzo[d][1,2,3]triazin-4-one] yielded a Ki [1] of 10 to 31.6 nM.

`COc1cc(-n2cnc3cc(-c4ccccc4)sc3c2=O)ccc1OCCN1CCCC1` [Example F1, 3-[3-Methoxy-4-(2-pyrrolidin-1-yl-ethoxy)-phenyl]-6-phenyl-3H-thieno[3,2-d]pyrimidin-4-one] was tested, and the Ki [1] was 10 to 31.6 nM.

For “MCH (DFDMLRCMLGRVYRPCWQV; ends and bridges not checked; cysteine pairing not given here; UniProt P20382 147-165, looked up) [reference compound]”, the Blood glucose ([2]; MCH 50 ug/kg group, 5 min) was 6.5 ± 0.33 (7) mmol/l, the Plasma glucagon ([2]; MCH 50 ug/kg group, 5 min) was 35.16 ± 2.5 (7) pg/ml and the Blood glucose ([2]; MCH 50 ug/kg group, 15 min) was 11.81 ± 1.27 (7) mmol/l. For the same compound, the Plasma glucagon ([2]; MCH 50 ug/kg group, 15 min) was 28.67 ± 1.61 (7) pg/ml, the Blood glucose ([2]; MCH 50 ug/kg group, time 0) was 5.87 ± 0.22 (7) mmol/l and the Plasma glucagon ([2]; MCH 50 ug/kg group, time 0) was 23.6 ± 1.2 (6) pg/ml. For the same compound, the “increase in plasma glucagon from the pre-treatment value” ([2]; MCH 50 ug/kg iv alone, after 5 minutes) was 48.7%, the “maximum rise in blood glucose concentration” value ([2]; MCH 50 ug/kg iv alone, after 15 min) was 101% and the “increase in plasma glucagon from the pre-treatment value” ([2]; MCH 50 ug/kg iv alone, after 15 minutes) was 21%.

`COc1cc(N2C(=O)c3ccc(Nc4ccccc4)cc3C2=O)ccc1OCCN1CCCC1` [Example A5, 2-[3-Methoxy-4-(2-pyrrolidin-1-yl-ethoxy)-phenyl]-5-phenylamino-isoindole-1,3-dione] showed a Ki [1] of 10 to 31.6 nM.

With `COc1cc(N2C(=O)c3ccc(Oc4ccccc4)cc3C2=O)ccc1OCCN1CCCC1.Cl` [Example A4, 2-[3-Methoxy-4-(2-pyrrolidin-1-yl-ethoxy)-phenyl]-5-phenoxy-isoindole-1,3-dione hydrochloride] the “pKi in binding to the 353 form of the 11CBy receptor” value [1] was 7.7, the Blood glucose [2, 3] was 6.46 ± 0.46 (7) mmol/l and the Plasma glucagon [2, 3] was 30.85 ± 2.01 (7) pg/ml. For the same compound, the Blood glucose [2, 4] was 7.71 ± 0.43 (7) mmol/l, the Plasma glucagon [2, 4] was 22.87 ± 0.56 (5) pg/ml and the Blood glucose [2, 5] was 5.35 ± 0.23 (7) mmol/l. For the same compound, the Plasma glucagon [2, 5] was 23.45 ± 1.16 (7) pg/ml, the “rise in plasma glucagon” value ([2]; Example A4 15 mg/kg iv five minutes prior to iv MCH bolus, after 5 minutes) was “no rise” and the “rise in plasma glucagon” value ([2]; Example A4 15 mg/kg iv five minutes prior to iv MCH bolus, after 15 min) was 2.7%. The blood glucose increase ([2]; Example A4 15 mg/kg iv five minutes prior to iv MCH bolus, time not given) was 44%.
